For this assay, the system named is SARS-CoV-2. The assay can be described thus: microbe, parasite or virus in culture. Type of assay: cell-based.
Setting [1] is: Severe acute respiratory syndrome coronavirus 2, 120 h.
[2] abbreviates: confluence of SARS-CoV-2 infected VeroE6-EGFP cells after test compound treatment compared to control wells, 5 days.

Where two headings read alike, the source gives them in different places. Peptide text beside a SMILES is read from it. * marks the point of attachment. Cbz = O=C(OCc1ccccc1)*

As for `O=S(=O)(NCC1CC1)c1ccc(Nc2nccc(N3CCCc4cc(O)ccc43)n2)cc1` [compound 86, N-(Cyclopropylmethyl)-4-[[4-(3,4-dihydro-6-hydroxy-1(2H)-quinolinyl)-2-pyrimidinyl]amino]benzenesulfo namide], for the setting “5 days”, the “Maximum confluence reached (%)” value was 55.04%.

As to `CC(C)(O)CNc1ncc(-c2ccnc(Nc3ccnc(Cl)c3)n2)c(CC2CC2)n1` [compound 60, 1-[[2-[(2-chloro-4-pyridinyl)amino]-4'-(cyclopropylmethyl) [4,5'-bipyrimidin]-2'-yl]amino]-2-methyl-2-propanol], under “5 days”, the “Maximum confluence reached (%)” value is 45.62%.

Regarding `Cc1nc(N)nc(N)c1-c1ccc(Cl)c(Cl)c1` [compound 41, 5-(3,4-Dichlorophenyl)-6-methylpyrimidine-2,4-diamine], for the setting “5 days”, the “Maximum confluence reached (%)” value is 58.02%.

Consider `CC(C)COCC(CN(Cc1ccccc1)c1ccccc1)N1CCCC1.Cl.O` (stereo not drawn) [compound 78, 1-[1-(N-Benzylanilino)-3-isobutoxy-2-propyl]pyrrolidine monohydrochloride monohydrate], for which the “Maximum confluence reached (%)” value (5 days) worked out at 30.41%.

On to “(4R,4aS)-18-Ethenyl-4,4a-dihydro-3,4-bis(methoxycarbonyl)-4a,8,14,19-tetramethyl-24H,26H-benzo[b]porphine-9,13-dipropanoic acid monomethyl ester [compound 39]”, for which the “Maximum confluence reached (%)” value (5 days) amounted to 89.5%. In addition, the IC50 (commonly the concentration needed to halve the response being measured) (read-out: IC50) came out at 30 µM.

Take `CC1(N2CCC(n3c([C@@H]4CCCNC4)nc4ccccc43)CC2)CCCCCCC1` [compound 51, 1-[1-(1-Methylcyclooctyl)piperidin-4-yl]-2-[3(R)-piperidinyl]-1H-benzimidazole]: the “Maximum confluence reached (%)” value (5 days) is given as 57.77%.

`c1cncc(CN2CCC(n3ncc4c(N5CCOCC5)nc(-c5ccc6[nH]ccc6c5)nc43)CC2)c1` [compound 32, 6-(1H-Indol-5-yl)-4-(4-morpholinyl)-1-[1-(pyridin-3-ylmethyl)piperidin-4-yl]-1H-pyrazolo[3,4-d]pyrimidine]: the “Maximum confluence reached (%)” value (5 days) amounted to 67.69%.

With `CC(C)(C)c1cc(C=C(C#N)C#N)cc(C(C)(C)C)c1O` [compound 66, (3,5-Di-tert-butyl-4-hydroxybenzylidene)malononitrile], the “Maximum confluence reached (%)” value (5 days) worked out at 47.6%.

In the case of `CC[C@@]1([C@@H]2O[C@@H]([C@H]3O[C@@](O)(COC(=O)Nc4ccccc4)[C@H](C)C[C@@H]3C)C[C@@H]2C)CC[C@H]([C@]2(C)CC[C@]3(C[C@H](O)[C@@H](C)[C@@H]([C@@H](C)[C@@H](OC)[C@H](C)C(=O)[O-])O3)O2)O1.[Na+]` [compound 98, 4(S)-[(2S,5R,7S,8R,9S)-2-[(2S,2'R,3'S,5R,5'R)-2-Ethyl-5'-[6(R)-hydroxy-3(S),5(R)-dimethyl-6-(phenylaminocarbonyloxymethyl)tetrahydropyran-2(S)-yl]-3'-methylperhydro-2,2'-bifuran-5-yl]-9-hydroxy-2,8-dimethyl-1,6-dioxaspiro[4.5]dec-7-yl]-3(R)-methoxy-2(S)-methylpentanoic acid sodium salt], the “Maximum confluence reached (%)” value (5 days) is 38.24%. This compound also displayed an IC50 under setting [1] of 3.18 µM.

Regarding `CC(C)C[C@@H](C=O)NC(=O)[C@H](CC(C)C)NC(=O)[C@H](CC(C)C)NC(=O)OCc1ccccc1` [compound 52, Benzyloxycarbonyl-L-leucyl-L-leucyl-L-leucinal] (Cbz-Leu-Leu-Leu-aldehyde), the “Maximum confluence reached (%)” value (5 days) is recorded as 82.81%.

Regarding `Cc1cccc(Nc2nc(-c3ccncc3)cs2)c1` [compound 85, N-(3-Methylphenyl)-4-(4-pyridyl)thiazol-2-amine], the “Maximum confluence reached (%)” value (5 days) amounted to 47.81%.

On to `CC(C)C[C@H](NC(=O)CNC(=O)c1cc(Cl)ccc1Cl)B(O)O` [compound 108, 1(R)-[2-(2,5-Dichlorobenzamido)acetamido]-3-methylbutylboronic acid], for which the “Maximum confluence reached (%)” value (5 days) is recorded as 30.79%. This compound registered an IC50 under setting [1] of 135 µM.

As for `CC(C)(C)C(=O)C(=Cc1cccc([N+](=O)[O-])c1)n1cncn1` [compound 76, 4,4-dimethyl-1-(3-nitrophenyl)-2-(1H-1,2,4-triazol-1-yl)-1-penten-3-one], the “Maximum confluence reached (%)” value was determined as 50.44%. Under setting [1], this compound displayed an IC50 of 4.33 µM.

Consider `O=C(NCCN1CCC2(CC1)C(=O)NCN2c1cccc(F)c1)c1ccc2ccccc2c1` [compound 56, N-[2-[1-(3-Fluorophenyl)-4-oxo-1,3,8-triazaspiro[4.5]dec-8-yl]ethyl]naphthalen-2-carboxamide], for which the “Maximum confluence reached (%)” value (5 days) worked out at 98.46%.

On to `O=C(c1c2ccccc2cc2ccccc12)N1CCC(N2CCC[C@@H](C(=O)N3CCOCC3)C2)CC1` [compound 81, 1-[1'-(Anthracen-9-ylcarbonyl)-1,4'-bipiperidin-3(R)-yl]-1-(4-morpholinyl)methanone], for which the “Maximum confluence reached (%)” value under setting [2] is given as 51%.

Consider `CN(C)CCC=C1c2ccccc2C=Cc2ccccc21.Cl` [compound 90, 3-(5H-Dibenzo[a,d]cyclohepten-5-ylidene)-N,N-dimethylpropan-1-amine hydrochloride], for which the “Maximum confluence reached (%)” value is 70,19%. Half-maximal inhibition under setting [1] (IC50) required 12.1 µM.

Consider `C[C@@H]1COCCN1c1cc(=O)n2c(n1)N(Cc1cncc(Cl)c1)[C@H](C(F)(F)F)CC2` [compound 54, (8S)-9-[(5-Chloropyridin-3-yl)methyl]-2-[(3R)-3-methylmorpholin-4-yl]-8-(trifluoromethyl)-6,7,8,9-tetrahydro-4H-pyrimido[1,2-a]pyrimidin-4-one], for which, under setting [2], the “Maximum confluence reached (%)” value is recorded as 89%.

`COc1cc2c(NC3CCN(C4CCCCC4)CC3)nc(N3CCCN(C(C)C)CC3)nc2cc1OCCCN1CCCCC1` [compound 59, N-(1-Cyclohexylpiperidin-4-yl)-6-methoxy-7-[3-(1-piperidinyl)propoxy]-2-[4-(propan-2-yl)perhydro-1,4-diazepin-1-yl]quinazolin-4-amine]: the “Maximum confluence reached (%)” value (5 days) was 80.08%.

As for `COc1ccc2c(c1)[C@]1(C[C@H]1c1ccc3c(/C=C/c4ccc(CN5C[C@@H](C)O[C@@H](C)C5)cc4)n[nH]c3c1)C(=O)N2.O=C(O)/C=C/C(=O)O` [compound 33, (1R,2S)-2-[3-[(E)-2-[4-[(cis-2,6-Dimethylmorpholin-4-yl)methyl]phenyl]vinyl]-1H-indazol-6-yl]-5'-methoxyspiro[cyclopropane-1,3'-indol]-2'(1'H)-one (2E)-but-2-enedioate], the “Maximum confluence reached (%)” value (5 days) was 105.46%.

`CCN(CC)CCOc1ccc(C(=C(Cl)c2ccccc2)c2ccccc2)cc1.O=C(O)CC(O)(CC(=O)O)C(=O)O` [compound 82, 2-[4-(2-Chloro-1,2-diphenylvinyl)phenoxy]-N,N-diethylethanamine citrate]: the “Maximum confluence reached (%)” value (5 days) came out at 54.73%.

Consider `Nc1ccc(C(=O)Nc2cccc(-c3nc(N4CCOCC4)c4oc5ncccc5c4n3)c2)cn1` [compound 104, 6-Amino-N-[3-[4-(4-morpholinyl)pyrido[3',2':4,5]furo [3,2-d]pyrimidin-2-yl]phenyl]pyridine-3-carboxamide], for which, for the setting “5 days”, the “Maximum confluence reached (%)” value turned out to be 35.48%.

For the compound `Cc1[nH]c(/C=C2\C(=O)Nc3ccc(S(=O)(=O)Cc4c(Cl)cccc4Cl)cc32)c(C)c1C(=O)N1CCC[C@@H]1CN1CCCC1` [compound 53, 5-(2,6-Dichlorobenzylsulfonyl)-3(Z)-[3,5-dimethyl-4-[2(R)-(pyrrolidin-1-ylmethyl)pyrrolidin-1-ylcarbonyl]-1H-pyrrol-2-ylmethylene]-2,3-dihydro-1H-indol-2-one], the “Maximum confluence reached (%)” value (5 days) amounted to 95.69%.

For `CC(C)(C)c1cc(C=C(C#N)C#N)cc(C(C)(C)C)c1O` [compound 103, (3,5-Di-tert-butyl-4-hydroxybenzylidene)malononitrile], the “Maximum confluence reached (%)” value (5 days) was 51.51%. Moreover, the IC50 under setting [1] worked out at 205 µM.

For the compound `CCN(CC)CCO[C@H]1CC[C@@]2(C)C(=CC[C@@H]3[C@@H]2CC[C@]2(C)C(=O)CC[C@@H]32)C1.Cl` [compound 80, 3beta-[2-(Diethylamino)ethoxy]androst-5-en-17-one hydrochloride], for the setting “5 days”, the “Maximum confluence reached (%)” value is 44.66%.

With `Cn1nc(C(C)(C)C)cc1C(=O)N[C@@H](Cc1cccc(Cl)c1)C(=O)NCC#N` [compound 63, 3-tert-butyl-N-{(1S)-1-(3-chlorobenzyl)-2-[(cyanomethyl)amino]-2-oxoethyl}-1-methyl-1H-pyrazole-5-carboxamide], the “Maximum confluence reached (%)” value (5 days) worked out at 96.18%.

As for “(1R,2S,3R)-3-(6-Amino-9H-purin-9-yl)-1,2-cyclopentanediol [compound 75]”, the “Maximum confluence reached (%)” value under setting [2] is listed as 33.14%. Moreover, the IC50 (half maximal concentration able to recover the cytopathic effect of infection, VeroE6-EGFP cells, 0.01 MOI, 5 days, 8 concentrations, read-out: IC50) was determined as 0.36 µM.

The values above are taken from patent EP4000606A1, “COMPOUNDS FOR CORONAVIRUS INFECTION TREATMENT AND/OR PREVENTION” (priority 2020, dated 2022).
